Where two headings read alike, the source gives them in different places.

Data set [1] relates to native non-transduced MC38 cells. In words: Synergism proof of principle IV: IFN-β protein by ELISA. Type of data set: cell-based, murine. As for the experimental part: In addition to the previous experiments, the objective of the fourth experiment was to further investigate the observed synergism between the canonical and non-canonical STING.
To this end, native non-transduced MC38 cells received 0 Gy, 2 Gy or 8 Gy as described above. […] The IFN-p protein levels were determined by ELISA as described above.

Another data set deals with human STING (Homo sapiens, UniProt Q86WV6). The following applies: cited from earlier work.
For data set [2] the following is noted: human, in vivo; cited from earlier work.
For data set [3], the target named is T1, hSTINGmut (Homo sapiens, UniProt Q86WV6, G230I/H232R/Q266I/S162A).
T1 construct: expressed in transfected cells
Nature of the data set: Time-course expression of STING-derived cytokines upon DMXAA treatment (qPCR). It is filed as cell-based. The following applies: MC38 and Hep2G cells encoding hSTINGmut; 50 μg/mL DMXAA; any given timepoint. How it is done: The objective of this experiment was to examine the time-course of STING-derived cytokine expression upon DMXAA treatment. As a readout, the expression of STING-derived cytokines was measured by qPCR.
To this end, stable cell lines of MC38 and Hep2G cells encoding hSTINGmut have been obtained as described above. […] Cells were harvested and prepared for qPCR measurements as described above.

The target of data set [4] is T1, hSTINGmut. Nature of the data set: DMXAA mediated expression of STING-derived cytokines (qPCR). Particulars: hSTINGmut-transduced MC38 and Hep2G cells; 50 μg/mL DMXAA, 3 h or 6 h. It is filed as cell-based. How it is done: (§1) As a readout, the expression of STING-derived cytokines was measured by qPCR.
(§2) To this end, MC38 and Hep2G cells have been transduced with lentiviruses encoding luciferase, hSTINGwt, hSTINGmut to obtain stable cell lines as described above or were not transduced with any lentivirus (no vector). Respective cells were seeded in 24-well plates at a density of 750 cells/mm^2 in growth medium. […] Cells were harvested and prepared for qPCR measurements as described above. The expression of the cytokines IFN-β, TNF-α, IL-6, CXCL9 and CXCL10 were measured for either experimental group and expression levels relative to controls (no vector) were quantified.

Another data set concerns the target T2, hSTINGwt (Homo sapiens, UniProt Q86WV6, H232R).
T2 construct: expressed in transfected cells
The data set is described as above. It is filed as cell-based. Particulars: other groups (hSTINGwt, luciferase, no vector); 50 μg/mL DMXAA. How it is done:
as §1, §2

In data set [5] the test system is MC38 cells. Nature of the data set: Synergism proof of principle I: IFN-β mRNA by qPCR. It is filed as cell-based, murine. Particulars: 8 Gy + DMXAA 50 μg/mL, without exogenic hSTINGmut. How it is done: To this end, MC38 cells received 8 Gy or 0 Gy as described above (example 7). Cells were seeded thereafter at 750 cells/mm^2 density and were then either mock-transduced or transduced with AAV8-hSTINGmut (1×10^5 viral genomes/cell). For cell transduction 8.5×10^9 viral genomes of AAV8-hSTINGmut from known concentration stock solutions, were resuspended in 50 μl RPMI 2% FBS. The resuspended viral particles were then added to the wells where the cells were seeded.

The test system of a further data set is HEK293 cells. Nature of the data set: Synergism proof of principle III: IFN-β and IL-12 mRNA by qPCR. Type of data set: cell-based, human. Particulars: for IFN-β expression levels: hSTINGmut expressing cells. From the text:
To this end, HEK293 cells received 8 Gy or 0 Gy as described above for MC38 cells and then were co-transduced with AAV8-hSTINGmut (1×10^5 viral genomes), AAV8-ISREx4-IL12miR122T (1×10^5 viral genomes) and/or AAV-GFP (1×10^5 viral genomes) as indicated in the figure.

Data set [6] concerns MC38 cells. In words: Synergism proof of principle II: IL-12 mRNA by qPCR. It is filed as cell-based, murine. Particulars: cells transduced with AAV8-hSTINGmut plus AAV8-ISREx4-IL12miR122T. As for the experimental part:
To this end, MC38 cells received 8 Gy or 0 Gy as described above and then were co-transduced with AAV8-hSTINGmut (1×10^5 viral genomes/cell) and AAV8-ISREx4-IL12miR122T (0.5×10^5 viral genomes/cell) as described above. For cell transduction, 8.5×10^9 viral genomes of AAV8-hSTINGmut and 4.25×10^9 viral genomes of AAV8-scIL12-miR122T, from known concentration stock solutions, were resuspended, each one, in 50 μl RPMI 2% FBS. The resuspended viral particles were then added to the wells where the cells were seeded. […] The IL-12 mRNA was determined by qPCR as described above (example 3) and expression levels were quantified in reference to non-transduced, non-irradiated cells treated with vehicle.

The test system of the next data set is MC38 tumors. In words: Synergism of DMXAA and radiotherapy in a humanized mouse model in vivo, cytokine ELISA. Particulars: 6 h after DMXAA 20 mg/kg, irradiated tumors. Further details: species or system STING deficient C57 mice (STING KO).
In data set [7] the test system is IFN-β protein levels in the serum. As for the experimental part: C57 wild type mice, aged 6 to 10 weeks, were injected intravenously with an AAV8 vector encoding either hSTINGmut (AAV8-hSTINGmut, 1×10^11 viral genomes) or as a control GFP (AAV8-GFP, 1.5×10^11 viral genomes).
Data set [8] deals with hSTING[R]-S162A/G230I/Q266I (Homo sapiens, UniProt Q86WV6, G230I/H232R/Q266I/S162A). The following applies: cited from earlier work.
In another data set the target is T3, murine STING (Mus musculus, UniProt Q3TBT3).
T3 sequence (Q3TBT3 1-378): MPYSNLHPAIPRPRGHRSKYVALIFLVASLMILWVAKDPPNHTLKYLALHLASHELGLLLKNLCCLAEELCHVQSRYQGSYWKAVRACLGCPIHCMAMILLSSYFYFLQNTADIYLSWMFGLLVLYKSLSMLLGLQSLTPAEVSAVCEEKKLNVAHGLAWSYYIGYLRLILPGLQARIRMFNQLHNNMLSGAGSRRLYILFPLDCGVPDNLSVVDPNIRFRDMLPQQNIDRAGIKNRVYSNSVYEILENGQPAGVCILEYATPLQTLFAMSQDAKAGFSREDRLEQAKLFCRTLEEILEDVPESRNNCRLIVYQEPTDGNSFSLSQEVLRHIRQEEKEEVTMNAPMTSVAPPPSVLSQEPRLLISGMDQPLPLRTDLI
The following applies: cited from earlier work.

T1 sequence (Q86WV6 whole entry S162A/G230I/H232R/Q266I): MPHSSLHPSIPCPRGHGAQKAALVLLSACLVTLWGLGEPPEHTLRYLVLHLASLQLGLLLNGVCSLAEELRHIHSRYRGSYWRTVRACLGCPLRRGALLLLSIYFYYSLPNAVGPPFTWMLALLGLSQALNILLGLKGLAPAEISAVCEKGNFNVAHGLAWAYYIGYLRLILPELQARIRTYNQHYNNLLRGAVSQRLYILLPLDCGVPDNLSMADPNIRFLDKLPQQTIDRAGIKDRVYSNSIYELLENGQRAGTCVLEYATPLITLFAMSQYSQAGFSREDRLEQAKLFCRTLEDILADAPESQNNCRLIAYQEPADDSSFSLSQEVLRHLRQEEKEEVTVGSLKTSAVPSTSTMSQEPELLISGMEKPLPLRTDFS
Sequence of human STING (Q86WV6 whole entry H232R): as the sequence (Q86WV6 whole entry S162A/G230I/H232R/Q266I) above, with A162S, I230G, I266Q counted along it
T2 sequence (Q86WV6 whole entry H232R): as the sequence (Q86WV6 whole entry S162A/G230I/H232R/Q266I) above, with A162S, I230G, I266Q counted along it
Sequence of hSTING[R]-S162A/G230I/Q266I (Q86WV6 whole entry S162A/G230I/H232R/Q266I): as the sequence (Q86WV6 whole entry S162A/G230I/H232R/Q266I) above

Regarding `Cc1ccc2c(=O)c3cccc(CC(=O)O)c3oc2c1C` [DMXAA, 5,6-Dimethylxanthenone-4-acetic acid], the IFN-β production result in [1] (8 Gy plus DMXAA (different doses), 24 h or 48 h) is “exceeding the sum of those obtained with radiation alone and DMXAA alone”. For the same compound, the “IFN-β production after a single dose of radiation” value in data set [1] (8 Gy, DMXAA 50 μg/mL 24 h later, collected after another 24 h) is recorded as “enhanced”. The “activation of human STING” value on human STING was “unable to activate”. Besides, the “efficacy in clinical trials” value in data set [2] is listed as “lack of efficacy”. In addition, in [2], the “tolerability in clinical trials” value was “well tolerated and only displayed minor side effects”. On hSTINGmut [3], the “expression of STING-derived cytokines over time” value is “increase in expression levels”. Moreover, the “expression of the cytokines IFN-β, TNF-α, IL-6, CXCL9 and CXCL10” value is “elevated” on hSTINGmut [4] and “no significant alteration” at hSTINGwt. Besides, the “IFN-β mRNA expression” value in the data set on MC38 cells [5] is reported as “increase in IFN-β expression”. The IL-12 expression levels entry with HEK293 cells (ISREx4-IL12miR122T expressing cells, radiation plus further DMXAA treatment) is “significant increase”. Also, the IFN-β expression levels result in the data set with HEK293 cells (DMXAA 50 μg/mL) was “upregulated”; in the data set on HEK293 cells (DMXAA plus additional irradiation 8 Gy), “significantly increased”. Also, the “IL-12 mRNA levels” value was “strong elevation” in the data set with MC38 cells [6] (8 Gy) and “slight elevation” in the data set with MC38 cells [6] (non-irradiated). Besides, the “intratumor levels of IL-12” value in the data set on MC38 tumors was “increased significantly”. Moreover, the “serum IFN-β levels in AAV8-GFP transduced control animals” value in [7] (20 mg DMXAA/kg bodyweight i.p., after a first injection) was “elevation”. The toxicity and mortality result was “high toxicity and mortality” in data set [7] (20 mg DMXAA/kg, AAV8-hSTINGmut and AAV8-GFP mice, systemic STING stimulation); “neither cause significant toxicity nor mortality” in data set [7] (5 or 10 mg DMXAA/kg, AAV8-hSTINGmut transduced mice). Besides, the “serum IFN-β levels in AAV8-hSTINGmut transduced mice” value in data set [7] (5 or 10 mg DMXAA/kg bodyweight i.p.) is given as “very low levels”. Also, the “activation of hSTING[R]-S162A/G230I/Q266I” value in data set [8] is on record as “highly activated”.

For `O=C(O)Cc1cccc2c(=O)cc(-c3ccccc3)oc12` [FAA, flavone-8-acetic acid], the “activation of murine STING” value at murine STING is reported as “may also be activated”.

The values above are taken from US20250186623A1, “EXPRESSION SYSTEM FOR THE TREATMENT OF CANCER” (FUNDACION PARA LA INVESTIGACION MEDICA APLICADA, priority 2022, published 2025).
